Some results are limits rather than exact numbers.

The experiment concerns the target T1, AXL kinase (Homo sapiens, UniProt P30530).
T1 construct: purchased Carna 08-107
T1 sequence (P30530 473-894 limits assumed): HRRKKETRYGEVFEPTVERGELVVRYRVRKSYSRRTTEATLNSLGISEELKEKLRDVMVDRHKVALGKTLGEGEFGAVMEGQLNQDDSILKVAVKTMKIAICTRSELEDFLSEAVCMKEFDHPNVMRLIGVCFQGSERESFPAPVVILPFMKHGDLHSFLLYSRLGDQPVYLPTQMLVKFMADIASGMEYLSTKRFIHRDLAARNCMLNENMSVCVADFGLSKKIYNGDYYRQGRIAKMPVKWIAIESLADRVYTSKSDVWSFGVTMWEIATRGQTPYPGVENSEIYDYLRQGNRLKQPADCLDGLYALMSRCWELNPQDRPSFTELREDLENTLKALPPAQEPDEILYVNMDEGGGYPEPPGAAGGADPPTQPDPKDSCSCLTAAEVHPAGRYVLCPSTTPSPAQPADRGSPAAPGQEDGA
In words: Inhibitory activity of compound against AXL kinase (HTRF KinEASE). It is filed as biochemical. Particulars: AXL enzyme (Carna, 08-107), ATP 15 μM; "<" means below detection limit of the test. The protocol:
a) AXL enzyme (Carna, 08-107) configuration and addition: a 1×enzyme buffer (200 μL of Enzymatic buffer kinase 5×, 10 μL of 500 mM MgCl2, 10 μL of 100 mM DTT and 6.26 μL of 2500 nM SEB are added with […] of H2O, and prepared into 1 ml of 1× enzyme buffer) is used. AXL enzyme is diluted from 33.33 ng/uL to 0.027 ng/μL (1.67×, final conc.=0.016 ng/uL), a BioTek (MultiFlo FX) automatic liquid dispenser is used, and 6 μL of enzyme solution having a 1.67-fold final concentration is added respectively to compound wells and positive control wells; and 6 μL of 1×Enzymatic buffer is added to negative control wells.
b) Compound preparation and addition: the compounds and positive drugs prepared in the examples are diluted from 10 mM to 100 μM by DMSO, and titrated with a compound titrator (Tecan, D300e). The titrated solution is automatically sprayed by the titrator to each well to reach a required concentration, wherein the first concentration is 1 μM, and after ½ log dilution, a total of 8 concentrations are obtained. The resulting mixture is centrifuged at 2500 rpm for 30 s and incubated at room temperature for 15 min.
c) Preparation and addition of ATP and substrate: ATP (Sigma, A7699) is diluted with 1× enzyme buffer from 10 mM to 75 μM (5×), and the final concentration is 15 μM; the substrate TK Substrate 3-biotin (Cisbio, 61TK0BLC) is diluted with 1× enzyme buffer from 500 μM to 5 μM (5×), andthe final concentration is […]; ATP and the substrate are mixed in equal volume to obtain a mixed solution; the mixed solution is added to each well at 4 μL by using a BioTek automatic dispenser; centrifuged at 2500 rpm for 30 s, and reacted at 25° C. for 45 min.
d) Pirparation and addition of detection reagent: Streptavidin-XL665 (Cisbio, 610SAXLG) is diluted with HTRF KinEASE detection buffer (cisbio) from 16.67 μM to 250 nM (4×), and the final concentration is 62.5 nM; TK Antibody-Cryptate (Cisbio) is diluted with HTRF KinEASE detection buffer (cisbio) from 100× to 5×, and the final concentration is 1×; XL665 and Antibody are mixed in equal volume; the mixed solution is added to each well at 10 μL by using the BioTek automatic dispenser, centrifuged at 2500 rpm for 30 s, and reacted at 25° C. for 1 h. After the reaction is completed, the resulting product is detected by a multi-function plate reader HTR1p
GraphPad Prism 5 software log (inhibitor) vs. response-Variable slope is used to fit a dose-response curve to obtain the IC50 value of the compound to the inhibition of AXL kinase.
The calculation formula of the inhibition rate is as follows: […]
`CP(C)(=O)c1cc(C2(C#N)CC2)ccc1Nc1nc(Nc2ccc3c(c2)CC[C@@H](N2CCCC2)CC3)ncc1Cl` [Example 140, (S)-1-(4-((5-chloro-2-((7-(pyrrolidin-1-yl)-6,7,8,9-tetrahydro-5H-benzo[7]annulen-2-yl)amino)pyrimidin-4-yl)amino)-3-(dimethylphosphoryl)phenyl)cyclopropane-1-carbonitrile] gave an IC50 of 2.91 nM. For `O=S(=O)(c1ccccc1Nc1nc(Nc2ccc3c(c2)CC[C@@H](N2CCCC2)CC3)ncc1Cl)N1CCCC1` [Example 4, (S)-5-chloro-N^2-(7-(pyrrolidin-1-yl)-6,7,8,9-tetrahydro-5H-benzo[7]annulen-2-yl)-N^4-(2-(pyrrolidin-1-ylsulfo)phenyl)pyrimidine-2,4-diamine] the value was < 0.11 nM; for `CNC(=O)c1ncccc1Nc1nc(Nc2ccc3c(c2)CC[C@@H](N2CCCC2)CC3)ncc1Cl` [Example 33, (S)-3-((5-chloro-2-((7-(pyrrolidin-1-yl)-6,7,8,9-tetrahydro-5H-benzo[7]annulen-2-yl)amino)pyrimidin-4-yl)amino)-N-methylpicolinamide], 5.15 nM. Molecule `CN(C)S(=O)(=O)c1ccc(Nc2nc(Nc3ccc4c(c3)CC[C@@H](N3CCCC3)CC4)ncc2Cl)cc1` [Example 3, (S)-4-((5-chloro-2-((7-(pyrrolidin-1-yl)-6,7,8,9-tetrahydro-5H-benzo[7]annulen-2-yl)amino)pyrimidin-4-yl)amino)-N,N-dimethyl benzenesulfonamide] displayed an IC50 of 23.6 nM. This IC50 lies about 4.6-fold higher than the previous one. For `O=S(=O)(c1cccc(Nc2nc(Nc3ccc4c(c3)CC[C@@H](N3CCCC3)CC4)ncc2Cl)c1)N1CCCC1` [Example 5, (S)-5-chloro-N^2-(7-(pyrrolidin-1-yl)-6,7,8,9-tetrahydro-5H-benzo[7]annulen-2-yl)-N^4-(3-(pyrrolidin-1-ylsulfo)phenyl)pyrimidine-2,4-diamine] the value was 20.7 nM; for `CNC(=O)c1cc(P(C)(C)=O)ccc1Nc1nc(Nc2ccc3c(c2)CC[C@@H](N2CCCC2)CC3)ncc1Cl` [Example 79, (S)-2-((5-chloro-2-((7-(pyrrolidin-1-yl)-6,7,8,9-tetrahydro-5H-benzo[7]annulen-2-yl)amino)pyrimidin-4-yl)amino)-5-(dimethylphosphoryl)-N-methylbenzamide], 1.05 nM.

In the case of `CP(C)(=O)c1cc(C2CC2)ccc1Nc1nc(Nc2ccc3c(c2)CC[C@@H](N2CCCC2)CC3)ncc1Cl` [Example 112, (S)-(2-((5-chloro-2-((7-(pyrrolidin-1-yl)-6,7,8,9-tetrahydro-5H-benzo[7]annulen-2-yl)amino)pyrimidin-4-yl)amino)-5-cyclopropylphenyl)dimethyl phosphine oxide], inhibition was half-maximal at 2.41 nM (IC50). As for `[2H]C([2H])([2H])P(=O)(c1ccccc1Nc1nc(Nc2ccc3c(c2)CC[C@@H](N2CCCC2)CC3)ncc1Cl)C([2H])([2H])[2H]` [Example 56, (S)-(2-((5-chloro-2-((7-(pyrrolidin-1-yl)-6,7,8,9-tetrahydro-5H-benzo[7]annulen-2-yl)amino)pyrimidin-4-yl)amino)phenyl)bis(methyl-d3) phosphine oxide], the figure is 2.04 nM. Molecule `N#CCc1cccc(Nc2nc(Nc3ccc4c(c3)CC[C@@H](N3CCCC3)CC4)ncc2Cl)c1` [Example 11, (S)-2-(3-((5-chloro-2-((7-(pyrrolidin-1-yl)-6,7,8,9-tetrahydro-5H-benzo[7]annulen-2-yl)amino)pyrimidin-4-yl)amino)phenyl)acetonitrile] yielded an IC50 of 8.18 nM. For `CN(C)C(=O)c1occc1Nc1nc(Nc2ccc3c(c2)CC[C@@H](N2CCCC2)CC3)ncc1Cl` [Example 7, (S)-3-((5-chloro-2-((7-(pyrrolidin-1-yl)-6,7,8,9-tetrahydro-5H-benzo[7]annulen-2-yl)amino)pyrimidin-4-yl)amino)-N,N-dimethylfuran-2-carboxamide] the value was 7.74 nM; for `Cc1cc(Nc2nc(Nc3ccc4c(c3)CC[C@@H](N3CCCC3)CC4)ncc2Cl)c(P(C)(C)=O)cc1F` [Example 129, (S)-(2-((5-chloro-2-((7-(pyrrolidin-1-yl)-6,7,8,9-tetrahydro-5H-benzo[7]annulen-2-yl)amino)pyrimidin-4-yl)amino)-5-fluoro-4-methylphenyl)dimethyl phosphine oxide], 9.68 nM; for `Cc1cnc(-c2ccccc2Nc2nc(Nc3ccc4c(c3)CC[C@@H](N3CCCC3)CC4)ncc2Cl)o1` [Example 17, (S)-5-chloro-N^4-(2-(5-methyloxazol-2-yl)phenyl)-N^2-(7-(pyrrolidin-1-yl)-6,7,8,9-tetrahydro-5H-benzo[7]annulen-2-yl)pyrimidine-2,4-diamine], 27.9 nM. For `CS(=N)(=O)c1ccccc1Nc1nc(Nc2ccc3c(c2)CC[C@@H](N2CCCC2)CC3)ncc1Cl` (stereo partly drawn) [Example 50, (2-((5-chloro-2-(((S)-7-(pyrrolidin-1-yl)-6,7,8,9-tetrahydro-5H-benzo[7]annulen-2-yl)amino)pyrimidin-4-yl)amino)phenyl)(imino)(methyl)-λ^6-sulfanone], the IC50 came to 2.16 nM.

In the case of `COc1cc(P(C)(C)=O)c(Nc2nc(Nc3ccc4c(c3)CC[C@@H](N3CCCC3)CC4)ncc2Cl)cc1C#N` [Example 136, (S)-(2-((5-chloro-2-((7-(pyrrolidin-1-yl)-6,7,8,9-tetrahydro-5H-benzo[7]annulen-2-yl)amino)pyrimidin-4-yl)amino)-4-cyano-5-methoxyphenyl)dimethyl phosphine oxide], the 50% inhibitory concentration (IC50) was found to be 13.1 nM. As for `Clc1cnc(Nc2ccc3c(c2)CC[C@@H](N2CCCC2)CC3)nc1Nc1cccc2c1OCO2` [Example 9, (S)-4-(benzo[d][1,3]dioxo-4-yl)-5-chloro-2-(7-(pyrrolidin-1-yl)-6,7,8,9-tetrahydro-5H-benzo[7]annulen-2-yl)pyrimidine-2,4-diamine], the figure is 21.9 nM; as for `COc1ccc(Nc2nc(Nc3ccc4c(c3)CC[C@@H](N3CCCC3)CC4)ncc2Cl)c(P(C)(C)=O)c1` [Example 55, (S)-(2-((5-chloro-2-((7-(pyrrolidin-1-yl)-6,7,8,9-tetrahydro-5H-benzo[7]annulen-2-yl)amino)pyrimidin-4-yl)amino)-5-methoxyphenyl)dimethyl phosphine oxide], 3.14 nM; as for `CNC(=O)c1c(Nc2nc(Nc3ccc4c(c3)CC[C@@H](N3CCCC3)CC4)ncc2Cl)cc[nH]c1=O` [Example 42, (S)-4-((5-chloro-2-((7-(pyrrolidin-1-yl)-6,7,8,9-tetrahydro-5H-benzo[7]annulen-2-yl)amino)pyrimidin-4-yl)amino)-N-methyl-2-oxo-1,2-dihydropyridine-3-carboxamide], 14.6 nM.

With `Cc1cccc(Nc2nc(Nc3ccc4c(c3)CC[C@@H](N3CCCC3)CC4)ncc2Cl)c1P(C)(C)=O` [Example 113, (S)-(2-((5-chloro-2-((7-(pyrrolidin-1-yl)-6,7,8,9-tetrahydro-5H-benzo[7]annulen-2-yl)amino)pyrimidin-4-yl)amino)-6-methylphenyl) dimethyl phosphine oxide], the IC50 was 1.28 nM. As for `CNC(=O)c1cnc(OC)cc1Nc1nc(Nc2ccc3c(c2)CC[C@@H](N2CCCC2)CC3)ncc1Cl` [Example 43, (S)-4-((5-chloro-2-((7-(pyrrolidin-1-yl)-6,7,8,9-tetrahydro-5H-benzo[7]annulen-2-yl)amino)pyrimidin-4-yl)amino)-6-methoxyl-N-methylnicotinamide], the figure is 9.87 nM; as for `CNC(=O)c1cc(C(F)(F)F)ccc1Nc1nc(Nc2ccc3c(c2)CC[C@@H](N2CCCC2)CC3)ncc1Cl` [Example 35, (S)-2-((5-chloro-2-((7-(pyrrolidin-1-yl)-6,7,8,9-tetrahydro-5H-benzo[7]annulen-2-yl)amino)pyrimidin-4-yl)amino)-N-methyl-5-(trifluoromethyl)benzamide], 1.21 nM.

Values taken from patent publication US20230227484A1, “PYRIMIDINE COMPOUND AS AXL INHIBITOR” (NANJING CHIA TAI TIANQING PHARMACEUTICAL CO., LTD., priority 2020, published 2023).
